According to ChEMBL document CHEMBL3301361, “Experimental in vitro DMPK and physicochemical data on a set of publicly disclosed compounds”:
≈ marks a conversion by molar mass, not a printed value.

What was measured:
physchem [1] = details: octan-1-ol/water
physchem [2] = details: pH 7.4 buffer

Compound	logD (physchem [1]; pH 7.4, LogD7.4)	solubility thermodynamic (physchem [2]) [µM]	logD (physchem [1]; pH 7.4)
Nc1ncnc2c1ncn2Cc1ccccc1 [9-BENZYL-9H-ADENINE]	1.53	246 (≈ 55.3 µg/mL)	–
O=C(NC1CCCCC1)c1cccnc1Sc1ccccc1	3.01	22.9 (≈ 7.15 µg/mL)	–
Cc1ccc2nc(NCCN)c3ncc(C)n3c2c1 [BMS-345541]	0.88	246 (≈ 62.7 µg/mL)	–
CS(=O)(=O)c1cccc(Nc2nccc(Nc3c(Cl)ccc4ccoc34)n2)c1	3.7	11.5 (≈ 4.77 µg/mL)	–
COc1cc(N2CCN(C(C)=O)CC2)ccc1Nc1ncc(C(F)(F)F)c(-c2cnc3ccccn23)n1	3.7	8.9 (≈ 4.55 µg/mL)	–
O=c1[nH]nc(Cc2ccccc2)c2ccccc12	2.8	24.5 (≈ 5.79 µg/mL)	–
Nc1nc(N)c2nc(-c3ccccc3)c(N)nc2n1	1.16	97.7 (≈ 24.7 µg/mL)	–
Nc1n[nH]c2nnc(-c3ccccc3)c(-c3ccccc3)c12	2.6	15.8 (≈ 4.54 µg/mL)	–
O=C1NC(=O)C(Cc2cccc(Oc3ccccc3)c2)S1 (stereo not given)	2.84	339 (≈ 101 µg/mL)	–
CN(C(=O)C1CCC1)C1CCN(CCC(c2ccccc2)c2ccccc2)CC1	3.2	282 (≈ 110 µg/mL)	–
CC(=O)Nc1nc(-c2ccccc2)ns1	–	182 (≈ 39.9 µg/mL)	2.8
CCn1c(=O)ccc2cnc(Nc3ccc(OC)c(OC)c3)nc21	2.7	1.6 (≈ 0.522 µg/mL)	–
CCc1cc(OCc2ccc(-c3ccccc3-c3nnn[nH]3)cc2)c2c(n1)CCCC2	1.7	23.4 (≈ 9.63 µg/mL)	–
CCc1cccc(CC)c1NC(=O)N1Cc2n[nH]c(NC(=O)c3ccc(N4CCN(C)CC4)cc3)c2C1 [PHA-680632]	3.31	107 (≈ 53.8 µg/mL)	–
COc1cccc(Nc2nnc(C(=O)Nc3ccc(N4CCOCC4)nc3)o2)c1	2.8	4.6 (≈ 1.82 µg/mL)	–
O=C(NC1CCCS(=O)(=O)C1)c1ccc(Oc2ccc(C#C[C@]3(O)CN4CCC3CC4)cc2)cc1 (stereo not given in full)	–	162 (≈ 80.2 µg/mL)	1.4
Cc1nc(C)c(-c2ccc3c(c2)CC[C@]32CC[C@@H](Cc3nnn[nH]3)CC2)nc1C(N)=O	2	77.6 (≈ 32.4 µg/mL)	–
CCOC(=O)c1ccc(OCC2CN(c3ccc(C)nn3)C2)cc1	3.1	141 (≈ 46.3 µg/mL)	–
CCCSc1ncccc1C(=O)N(C)C1CCCCC1	3.36	955 (≈ 279 µg/mL)	–
COc1cc2c(Nc3ccc(Br)cc3F)ncnc2cc1OC[C@@H]1CCCN(C)C1	3.05	170 (≈ 80.7 µg/mL)	–
O=C(NC1CCCC1)C(c1ccncc1)N(Cc1ccco1)C(=O)c1ccc(-c2ccccc2)[nH]1 (stereo not given)	4.36	3.5 (≈ 1.64 µg/mL)	–
COc1cc2ncc(C(N)=O)c(Nc3cccc(Cl)c3)c2cc1OC	3.5	10 (≈ 3.58 µg/mL)	–

Compound	logD (physchem [1]; pH 7.4, LogD7.4)	solubility thermodynamic (physchem [2]) [µM]	logD (physchem [1]; pH 7.4)
CCc1ccc(CCOc2ccc(CC3SC(=O)NC3=O)cc2)nc1 (stereo not given) [PIOGLITAZONE]	2.8	2 (≈ 0.713 µg/mL)	–
c1ccc(Nc2ccnc(Nc3ccccc3)n2)cc1	4.06	15.1 (≈ 3.96 µg/mL)	–
COc1ccnc(N(C)c2ccnc(Nc3cc(N4CCOCC4)cc(N4CCOCC4)c3)n2)c1	2.23	51.3 (≈ 24.5 µg/mL)	–
COC1(c2cc(F)cc(OCc3ccc4c(ccc(=O)n4C)c3)c2)CCOCC1 [ZD-2138]	3.52	3.2 (≈ 1.27 µg/mL)	–
O=C(N[C@@H](Cc1ccc(OCCc2ccc3c(n2)NCCC3)cc1)C(=O)O)c1c(Cl)cccc1Cl	0.33	107 (≈ 55.1 µg/mL)	–
O=C(NCc1ccncc1)c1ccc(Oc2ccc(C#C[C@]3(O)CN4CCC3CC4)cc2)cc1	–	302 (≈ 137 µg/mL)	2.42
CS(=O)(=O)c1cccc(Nc2nccc(Nc3cccc4ncoc34)n2)c1	2.5	5.6 (≈ 2.14 µg/mL)	–
CCN1C(=O)N(C)c2cnc(Nc3ccc(C(=O)NC4CCN(C)CC4)cc3OC)nc2N1C1CCCC1	2.75	603 (≈ 315 µg/mL)	–
O=C(CCc1ccncc1)Nc1ccc(C(=O)c2ccccc2)cc1	3.4	8.1 (≈ 2.68 µg/mL)	–
COc1cc(Nc2ncnc(Nc3c(Cl)ccc4c3OCO4)n2)cc(OC)c1OC	3.01	6.2 (≈ 2.68 µg/mL)	–
O=C(Nc1ccc(N2CCOCC2)cc1)c1nnc(NC(=O)C2(c3ccc(Cl)cc3)CCCC2)o1	3.72	8.7 (≈ 4.31 µg/mL)	–
COc1cc(N2CCN(C(C)=O)CC2)ccc1Nc1ncc(Cl)c(-c2cnc3c(N)cccn23)n1	3.4	0.9 (≈ 0.444 µg/mL)	–
CC1CCc2cc(F)cc3c(=O)c(C(=O)O)cn1c23 (stereo not given) [FLUMEQUINE]	–	776 (≈ 203 µg/mL)	0.74
CN1CCC(n2cc(-c3cnc(N)c(-c4nc5ccc(F)cc5o4)c3)cn2)CC1	3.35	13.5 (≈ 5.3 µg/mL)	–
CCOC(=O)c1ccc(OCCC2(C#N)CCN(c3ccc(C)nn3)CC2)cc1	3.54	58.9 (≈ 23.2 µg/mL)	–
CS(=O)(=O)c1cccc(Nc2nccc(Nc3cccc4c3OCC4)n2)c1	3	44.7 (≈ 17.1 µg/mL)	–
COc1cccc2c(O)cc(-c3ccccc3)nc12	2.3	224 (≈ 56.3 µg/mL)	–
CC(C)C(=O)Nc1ccc([N+](=O)[O-])c(C(F)(F)F)c1 [FLUTAMIDE]	–	89.1 (≈ 24.6 µg/mL)	3.46
O=C(Nc1ncc(F)s1)[C@H](CC1CCOCC1)c1ccc(S(=O)(=O)C2CC2)cc1	3.19	214 (≈ 93.8 µg/mL)	–
O=C(Nc1ccccc1)c1ccc(OCCCN2CCCC2)cc1OCc1cccc(F)c1	3.67	44.7 (≈ 20 µg/mL)	–
CNC(=O)c1ccccc1Sc1ccc2c(/C=C/c3ccccn3)n[nH]c2c1 [AXITINIB]	3.8	0.5 (≈ 0.193 µg/mL)	–
O=C(NCc1ccncc1)c1ccc(Oc2ccc(C#CC3(O)CN4CCC3CC4)cc2)cc1 (stereo not given)	–	269 (≈ 122 µg/mL)	2.48

Compound	logD (physchem [1]; pH 7.4, LogD7.4)	solubility thermodynamic (physchem [2]) [µM]	logD (physchem [1]; pH 7.4)
CCCNCc1cnc(-c2ccc(C(=O)Nc3ccccc3N)cc2)s1	1.75	676 (≈ 248 µg/mL)	–
FC(F)(F)c1nnc2ccc(N3CCCCCC3)nn12	3.29	132 (≈ 37.6 µg/mL)	–
CC1(COc2ccc3c(c2)ncn3-c2ccc3cccc(N4CCC(N)CC4)c3n2)COC1 [CRENOLANIB]	1.99	5.1 (≈ 2.26 µg/mL)	–
Cc1ccc(S(=O)(=O)Nc2c(C(=O)NC3CCCCC3)cnn2-c2ccccc2)cc1	0.8	490 (≈ 215 µg/mL)	–
COc1cc(C(=O)N2CCOCC2)ccc1Nc1ncc(Cl)c(-c2cnc3ccccn23)n1	3.4	1.6 (≈ 0.744 µg/mL)	–
CCn1c(SCC(=O)Nc2c(C#N)cnn2-c2ccccc2)nnc1-c1cccs1	2.1	14.1 (≈ 6.14 µg/mL)	–
COc1cc(C(=O)O)ccc1Cn1ccc2ccc(NC(=O)OC3CCCC3)cc21	2.1	186 (≈ 76.1 µg/mL)	–
CCn1c2ccccc2c2cc(NC(C)=O)ccc21	–	5.6 (≈ 1.41 µg/mL)	3.5
CCCSc1nc(N2CCC(C(=O)O)CC2)ccc1C(=O)NC1CCCCC1	1.6	309 (≈ 125 µg/mL)	–
CS(=O)(=O)c1ccc(Oc2ccc(C#C[C@]3(O)CN4CCC3CC4)cc2)cc1	–	457 (≈ 182 µg/mL)	1.51
Cc1oc(-c2ccccc2)nc1CCOc1ccc(C[C@H](Nc2ccccc2C(=O)c2ccccc2)C(=O)O)cc1 [FARGLITAZAR]	3.5	35.5 (≈ 19.4 µg/mL)	–
CN(C(=O)c1ccncc1)C1CCN(CCC(c2ccccc2)c2ccccc2)CC1	2.8	537 (≈ 222 µg/mL)	–
COc1cc2ncnc(Nc3cccc(Cl)c3F)c2cc1CN1CCC[C@@H]1C(N)=O	3.58	195 (≈ 83.8 µg/mL)	–
O=C(Nc1ccc(N2CCOCC2)nc1)c1nnc(Nc2ccc(F)cc2)o1	3	2.6 (≈ 0.999 µg/mL)	–
CNC(=O)c1ccc2c(=O)cc(-c3cccnc3)[nH]c2c1	1.01	309 (≈ 86.3 µg/mL)	–
CCn1c2ccccc2c2cc(NC(=O)N3CCOCC3)ccc21	3.2	2.9 (≈ 0.938 µg/mL)	–
CNc1cccc(CCOc2ccc(C[C@H](NC(=O)c3ccccc3Cl)C(=O)O)cc2)n1	-0.31	398 (≈ 181 µg/mL)	–
COCCOCCOc1ccc(-c2cc(C(N)=O)c(NC(N)=O)s2)cc1	2.21	20.9 (≈ 7.93 µg/mL)	–
O=C1CN2Cc3c(ccc(Cl)c3Cl)N=C2N1 [ANAGRELIDE]	1.86	5.4 (≈ 1.38 µg/mL)	–
N#Cc1cnn(-c2ccccc2)c1NC(=O)CN1CCN(c2ccccc2)CC1	2.3	25.1 (≈ 9.7 µg/mL)	–
NC(=O)Nc1sc(-c2ccc(CNC3CCCC3)cc2)cc1C(N)=O	1.22	479 (≈ 172 µg/mL)	–
